From PubChem BioAssay (NCI)
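Dose response: 5 concentrations. Exposure: 48 h. Format: 96-well plates. Endpoint: linear interpolation; highest concentration if not reached. TGI is the concentration that stops growth completely.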

Columns and labels:
Test in all cases: DTP human tumour cell line panel, 48 h
TK-10 renal = test system: TK-10 renal
SK-MEL-5 melanoma = test system: SK-MEL-5 melanoma
UACC-257 melanoma = test system: UACC-257 melanoma
RPMI-8226 leukemia = test system: RPMI-8226 leukemia
MDA-N = test system: MDA-N
786-0 renal = test system: 786-0 renal
PC-3 prostate = test system: PC-3 prostate
SK-MEL-2 melanoma = test system: SK-MEL-2 melanoma
SF-295 CNS = test system: SF-295 CNS
NCI-H23 lung = test system: NCI-H23 lung
OVCAR-8 ovarian = test system: OVCAR-8 ovarian
COLO 205 colon = test system: COLO 205 colon
U251 CNS = test system: U251 CNS
SK-OV-3 ovarian = test system: SK-OV-3 ovarian
LOX IMVI melanoma = test system: LOX IMVI melanoma
SNB-75 CNS = test system: SNB-75 CNS
SNB-19 CNS = test system: SNB-19 CNS
IGROV1 ovarian = test system: IGROV1 ovarian
HT29 colon = test system: HT29 colon
ACHN renal = test system: ACHN renal
UO-31 renal = test system: UO-31 renal
SN12C renal = test system: SN12C renal
A549 NSCLC = test system: A549 NSCLC
HCT-15 colon = test system: HCT-15 colon
CAKI-1 renal = test system: CAKI-1 renal
HCT-116 colon = test system: HCT-116 colon
MCF7 breast = test system: MCF7 breast
SW-620 colon = test system: SW-620 colon
OVCAR-3 ovarian = test system: OVCAR-3 ovarian
T-47D breast = test system: T-47D breast
UACC-62 melanoma = test system: UACC-62 melanoma
MDA-MB-231 breast = test system: MDA-MB-231 breast
NCI-H226 lung = test system: NCI-H226 lung
M14 melanoma = test system: M14 melanoma
SF-539 CNS = test system: SF-539 CNS
HOP-92 NSCLC = test system: HOP-92 NSCLC
CCRF-CEM leukemia = test system: CCRF-CEM leukemia
OVCAR-4 ovarian = test system: OVCAR-4 ovarian
HL-60(TB) leukemia = test system: HL-60(TB) leukemia
NCI-H522 lung = test system: NCI-H522 lung
MALME-3M melanoma = test system: MALME-3M melanoma
MDA-MB-435 = test system: MDA-MB-435
EKVX NSCLC = test system: EKVX NSCLC
RXF 393 renal = test system: RXF 393 renal
MOLT-4 leukemia = test system: MOLT-4 leukemia
A498 renal = test system: A498 renal
DU-145 prostate = test system: DU-145 prostate
SK-MEL-28 melanoma = test system: SK-MEL-28 melanoma
HOP-62 NSCLC = test system: HOP-62 NSCLC
NCI/ADR-RES ovarian = test system: NCI/ADR-RES ovarian
K-562 leukemia = test system: K-562 leukemia
HCC-2998 colon = test system: HCC-2998 colon
KM12 colon = test system: KM12 colon
OVCAR-5 ovarian = test system: OVCAR-5 ovarian

Measured: TGI

Nc1ccccc1C(=O)NNC(=O)c1ccccc1N
> 100 µM: all assays above
